{
  "source": "ChEMBL document CHEMBL1649121",
  "about": "“Giardia, Entamoeba, and Trichomonas enzymes activate metronidazole (nitroreductases) and inactivate metronidazole (nitroimidazole reductases)” (Antimicrob Agents Chemother, 2009)",
  "key": {"Escherichia coli [1]": {"tested_on": "Escherichia coli", "test": "Ratio of EC50 for Escherichia coli JM109 transformed with empty vector PQE30 to EC50 for Escherichia coli JM109 transformed with Entamoeba histolytica NTR2", "format": "functional"}, "Escherichia coli [2]": {"tested_on": "Escherichia coli", "test": "Ratio of EC50 for Escherichia coli JM109 transformed with empty vector PQE30 to EC50 for Escherichia coli JM109 transformed with Trichomonas vaginalis nim1", "format": "functional"}, "Entamoeba histolytica [3]": {"tested_on": "Entamoeba histolytica", "test": "Activity of Entamoeba histolytica NTR3 at 50 uM"}, "Escherichia coli [4]": {"tested_on": "Escherichia coli", "test": "Antimicrobial activity against Escherichia coli JM109 transformed with Trichomonas vaginalis nim1 after 16 hrs", "format": "functional, organism-based", "settings": "JM109, JM 109, 16 h"}, "Escherichia coli [5]": {"tested_on": "Escherichia coli", "test": "Antimicrobial activity against Escherichia coli JM109 transformed with Entamoeba histolytica nim1 after 16 hrs", "format": "functional, organism-based", "settings": "JM109, JM 109, 16 h"}, "Entamoeba histolytica [6]": {"tested_on": "Entamoeba histolytica", "test": "Activity of Entamoeba histolytica NTR2 at 50 uM"}, "Trichomonas vaginalis": {"tested_on": "Trichomonas vaginalis", "test": "Activity of Trichomonas vaginalis NTR8 at 50 uM"}, "Entamoeba histolytica [7]": {"tested_on": "Entamoeba histolytica", "test": "Activity of Entamoeba histolytica NIM1"}, "Escherichia coli [8]": {"tested_on": "Escherichia coli", "test": "Antimicrobial activity against Escherichia coli JM109 transformed with Entamoeba histolytica NTR1 after 16 hrs", "format": "functional, organism-based", "settings": "JM109, JM 109, 16 h"}, "Escherichia coli [9]": {"tested_on": "Escherichia coli", "test": "Antimicrobial activity against Escherichia coli JM109 transformed with empty vector PQE30 after 16 hrs", "format": "functional, organism-based", "settings": "JM109, JM 109, 16 h"}, "Entamoeba histolytica [10]": {"tested_on": "Entamoeba histolytica", "test": "Activity of Entamoeba histolytica NTR1 at 50 uM"}, "Giardia duodenalis": {"tested_on": "Giardia duodenalis", "test": "Activity of Giardia lamblia NTR at 50 uM"}, "Escherichia coli [11]": {"tested_on": "Escherichia coli", "test": "Ratio of EC50 for Escherichia coli JM109 transformed with empty vector PQE30 to EC50 for Escherichia coli JM109 transformed with Entamoeba histolytica NTR1", "format": "functional"}, "Escherichia coli [12]": {"tested_on": "Escherichia coli", "test": "Ratio of EC50 for Escherichia coli JM109 transformed with empty vector PQE30 to EC50 for Escherichia coli JM109 transformed with Entamoeba histolytica nim1", "format": "functional"}, "Escherichia coli [13]": {"tested_on": "Escherichia coli", "test": "Antimicrobial activity against Escherichia coli JM109 transformed with Entamoeba histolytica NTR2 after 16 hrs", "format": "functional, organism-based", "settings": "JM109, JM 109, 16 h"}},
  "data": [
    {"compound": "Cc1ncc([N+](=O)[O-])n1CCO", "note": "[METRONIDAZOLE]", "values": [
      {"measurement": "Ratio EC50", "setting": "Escherichia coli [1]", "value": 3},
      {"measurement": "Ratio EC50", "setting": "Escherichia coli [2]", "value": 20},
      {"measurement": "Km", "setting": "Entamoeba histolytica [3]", "value": 0.083, "unit": "µM"},
      {"measurement": "Vmax", "setting": "Entamoeba histolytica [3]", "value": 0.014, "unit": "µmol/min"},
      {"measurement": "EC50", "setting": "Escherichia coli [4]", "value": 500, "unit": "µg/mL"},
      {"measurement": "EC50", "setting": "Escherichia coli [5]", "value": 750, "unit": "µg/mL"},
      {"measurement": "Km", "setting": "Entamoeba histolytica [6]", "value": 0.081, "unit": "µM"},
      {"measurement": "Vmax", "setting": "Entamoeba histolytica [6]", "value": 0.031, "unit": "µmol/min"},
      {"measurement": "Km", "setting": "Trichomonas vaginalis", "value": 0.078, "unit": "µM"},
      {"measurement": "Vmax", "setting": "Trichomonas vaginalis", "value": 0.329, "unit": "µmol/min"},
      {"measurement": "Vmax", "setting": "Entamoeba histolytica [7]", "value": 0.057, "unit": "µmol/min"},
      {"measurement": "EC50", "setting": "Escherichia coli [8]", "value": 7, "unit": "µg/mL"},
      {"measurement": "EC50", "setting": "Escherichia coli [9]", "value": 25, "unit": "µg/mL"},
      {"measurement": "Km", "setting": "Entamoeba histolytica [10]", "value": 0.067, "unit": "µM"},
      {"measurement": "Vmax", "setting": "Entamoeba histolytica [10]", "value": 0.027, "unit": "µmol/min"},
      {"measurement": "Km", "setting": "Giardia duodenalis", "value": 0.206, "unit": "µM"},
      {"measurement": "Vmax", "setting": "Giardia duodenalis", "value": 0.347, "unit": "µmol/min"},
      {"measurement": "Ratio EC50", "setting": "Escherichia coli [11]", "value": 3},
      {"measurement": "Ratio EC50", "setting": "Escherichia coli [12]", "value": 30},
      {"measurement": "EC50", "setting": "Escherichia coli [13]", "value": 8, "unit": "µg/mL"}
    ]}
  ]
}
